Results: patent publication US9540691B2, “Assays and methods for selecting a treatment regimen for a subject with depression” (THE GENERAL HOSPITAL CORPORATION, priority 2011, dated 2017)
Where two headings read alike, the source gives them in different places.

Test system: MDD patients carrying the indicated conditions
Details: with SSRI
Description: Folate levels are classified as either low (<=2.5 ng/ml) or normal; and homocysteine levels as either normal or elevated (>=[…]). The presence or absence of at least one […] allele for the MTHFR gene are entered as a dichotomous variable (present or absent). […] Using folate as an example predicator, the presence or absence of a low serum-folate level along with treatment assignment can be entered in a 2×2, factorial ANOVA, using depression improvement scores (baseline minus endpoint HAM-D-17 scores) as the dependant variable. […] Similar analyses (i.e. separate 2×2 ANOVA's) can be performed substituting the presence of low folate levels for the presence of other predictors as described herein. Similarly, the effect of other predictors can be indicated by the interaction term representing the potential modulating influence of those variables.
Particularly, specific genetic and biomarkers that were assessed include the following: • (a) BMI calculation of at least about 30 kg/m^2; • (b) an expression ratio of SAM/SAH smaller than 2.8 (e.g., 2.71) as measured in a plasma sample; • (c) a level of 4-HNE no less than 3.28 μg/mL (as measured in a plasma sample); • (d) presence of rare variants CT or TT at position 677 of SEQ ID NO: 1 corresponding to a portion of a genomic nucleic acid sequence of methylenetetrahydrofolate reductase (MTHFR) (abbreviated as “MTHFR 677” below); • (e) presence of rare variants AG or GG at position 2756 of SEQ ID NO: 2 corresponding to a portion of genomic nucleic acid sequence of methionine synthase (MTR) (abbreviated as “MTR 2756” below); and • (f) presence of rare variants AG or GG at position 66 of SEQ ID NO: 3 corresponding to a portion of genomic nucleic acid sequence of methionine synthase reductase (MTRR) (abbreviated as “MTRR 66” below).
The efficacy effect is determined by measuring the mean change in the HAMD-17 score and HAMD-28 score by the end of Phase I and Phase II, as compared to the baseline.

[1] = Phase I, interaction of BMI with the treatment
[2] = Phase I, interaction of HNE-his with the treatment
[3] = Phase I, interaction of SAM/SAH with the treatment
[4] = Phase II, 25 =< BMI < 30 kg/m^2 (18, 10)

CN1c2c(nc(N)[nH]c2=O)NC[C@@H]1CNc1ccc(C(=O)N[C@@H](CCC(=O)O)C(=O)O)cc1 [6(S)-5-MTHF, 6(S)-5-methyltetrahydrofolate]
Effect, change in HAMD-17 score (Phase I, MTRR 66 AA and HNE-His < median (8,5)): −1.167 | Effect, change in HAMD-28 score (Phase I, MTRR 66 AA and HNE-His < median = 3.28 (plasma sample)): −4.167 | Effect, change in HAMD-17 score (Phase I, MTRR 66 AA and SAM/SAH >= median (9,6)): −0.125 | Effect, change in HAMD-28 score (Phase I, MTRR 66 AA and SAM/SAH >= median): 0.500 | Effect, change in HAMD-17 score (Phase I, MTRR 66 AG or GG and HNE-His >= median (24,11)): −5.958 | Effect, change in HAMD-28 score (Phase I, MTRR 66 AG or GG and HNE-His >= median): −6.975 | Effect, change in HAMD-17 score (Phase I, MTRR 66 AG or GG and SAM/SAH < median (24,10)): −5.062 | Effect, change in HAMD-28 score (Phase I, MTRR 66 AG or GG and SAM/SAH < median = 2.71 (plasma sample)): −6.498 | Effect, change in HAMD-17 score (Phase I, SAM/SAH < median and HNE-His >= median (19,7)): −3.670 | Effect, change in HAMD-28 score (Phase I, SAM/SAH < median and HNE-His >= median): −4.227 | Effect, change in HAMD-17 score (Phase I, SAM/SAH >= median and HNE-His < median (18,8)): −0.250 | Effect, change in HAMD-28 score (Phase I, SAM/SAH >= median and HNE-His < median): −0.750 | Effect, change in HAMD-17 score: BMI*treat [1]: −0.567 | Effect, change in HAMD-28 score: BMI*treat [1]: −0.668 | Effect, change in HAMD-17 score: HNE-his*treat [2]: −0.465 | Effect, change in HAMD-28 score: HNE-his*treat [2]: −0.133 | Effect, change in HAMD-17 score: SAM/SAH*treat [3]: 0.495 | Effect, change in HAMD-28 score: SAM/SAH*treat (last line) [3]: 0.972 | Effect, change in HAMD-17 score: baseHAMD-17*treat (Phase I, interaction of base HAMD-17 with the treatment): 0.165 | Effect, change in HAMD-28 score: SAM/SAH*treat (first line under HAMD28) (Phase I, interaction with the treatment): 0.495 | Effect, change in HAMD-17 score [4]: 2.000 | Effect, change in HAMD-28 score [4]: 0.000 | Effect, change in HAMD-17 score (Phase II, BMI < 25 (14, 7)): −1.400 | Effect, change in HAMD-28 score (Phase II, BMI < 25 (14, 7)): −2.300 | Effect, change in HAMD-17 score (Phase II, BMI < 30 kg/m^2 and HNE-His < median (19, 9)): 3.667 | Effect, change in HAMD-28 score (Phase II, BMI < 30 kg/m^2 and HNE-His < median): 1.833 | Effect, change in HAMD-17 score (Phase II, BMI < 30 kg/m^2 and SAM/SAH >= median (16,8)): 1.500 | Effect, change in HAMD-28 score (Phase II, BMI < 30 kg/m^2 and SAM/SAH >= median): 2.500 | Effect, change in HAMD-28 score (Phase II, BMI >= 30 kg/m^2 (40,21)): −3.245 | Effect, change in HAMD-17 score (Phase II, BMI >= 30 kg/m^2 and HNE-His >= median (23, 11)): −4.233 | Effect, change in HAMD-28 score (Phase II, BMI >= 30 kg/m^2 and HNE-His >= median): −4.933 | Effect, change in HAMD-17 score (Phase II, BMI >= 30 kg/m^2 and SAM/SAH < median (21,9)): −9.200 | Effect, change in HAMD-28 score (Phase II, BMI >= 30 kg/m^2 and SAM/SAH < median = 2.71 (plasma sample)): −10.350 | Effect, change in HAMD-17 score (Phase II, MTHFR 677 CC and BMI < 30 kg/m^2 (17,8)): −2.267 | Effect, change in HAMD-28 score (Phase II, MTHFR 677 CC and BMI < 30 kg/m^2): −3.000 | Effect, change in HAMD-17 score (Phase II, MTHFR 677 CC and HNE-His < median (20,11)): −0.857 | Effect, change in HAMD-28 score (Phase II, MTHFR 677 CC and HNE-His < median = 3.28 (plasma sample)): −0.536 | Effect, change in HAMD-17 score (Phase II, MTHFR 677 CC and MTR 2756 AA (29,13)): −0.571 | Effect, change in HAMD-28 score (Phase II, MTHFR 677 CC and MTR 2756 AA): 0.048 | Effect, change in HAMD-17 score (Phase II, MTHFR 677 CT or TT and BMI >= 30 kg/m^2 (13,6)): −7.333 | Effect, change in HAMD-28 score (Phase II, MTHFR 677 CT or TT and BMI >= 30 kg/m^2): −8.667 | Effect, change in HAMD-17 score (Phase II, MTHFR 677 CT or TT and HNE-His >= median (11,6)): −7.500 | Effect, change in HAMD-28 score (Phase II, MTHFR 677 CT or TT and HNE-His >= median): −7.500 | Effect, change in HAMD-17 score (Phase II, MTHFR 677 CT or TT and MTR 2756 AG or GG (8,4)): −10.33 | Effect, change in HAMD-28 score (Phase II, MTHFR 677 CT or TT and MTR 2756 AG or GG): −13.00 | Effect, change in HAMD-17 score (Phase II, MTR 2756 AA (45,21)): −0.427 | Effect, change in HAMD-17 score (Phase II, MTR 2756 AA and BMI < 30 kg/m^2 (17,7)): 1.167 | Effect, change in HAMD-28 score (Phase II, MTR 2756 AA and BMI < 30 kg/m^2): 0.917 | Effect, change in HAMD-17 score (Phase II, MTR 2756 AA and HNE-His < median (26,13)): 0.300 | Effect, change in HAMD-28 score (Phase II, MTR 2756 AA and HNE-His < median): −0.125 | Effect, change in HAMD-17 score (Phase II, MTR 2756 AA and MTRR 66 AA (11,5)): −8.000 | Effect, change in HAMD-17 score (Phase II, MTR 2756 AA and MTRR 66 AA and BMI < 30 kg/m^2 (7,4)): −4.333 | Effect, change in HAMD-28 score (Phase II, MTR 2756 AA and MTRR 66 AA and BMI < 30 kg/m^2): −4.667 | Effect, change in HAMD-17 score (Phase II, MTR 2756 AA and MTRR 66 AA and HNE-His < median (6,4)): −8.667 | Effect, change in HAMD-28 score (Phase II, MTR 2756 AA and MTRR 66 AA and HNE-His < median = 3.28 (plasma sample)): −9.000 | Effect, change in HAMD-17 score (Phase II, MTR 2756 AA and MTRR 66 AA and SAM/SAH >= median (6,3)): −7.000 | Effect, change in HAMD-28 score (Phase II, MTR 2756 AA and MTRR 66 AA and SAM/SAH >= median): −7.500
